Source: PubChem BioAssay (NCI)
Several values for one entry are separate records, joined by “and”; a condition that tells them apart may be missing. Equal entries are not always repeated.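 48-hour exposure; five concentrations; linearly interpolated endpoints. Here, GI50 denotes the concentration required for 50% inhibition of growth. TGI: total growth inhibition.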

Tests used:
Experiment in all cases: NCI-60 cell line screen, 48 h
[1] = test system: A498 renal
[2] = test system: LOX IMVI melanoma
[3] = test system: TK-10 renal
[4] = test system: RXF 393 renal
[5] = test system: SNB-75 CNS
[6] = test system: NCI-H522 lung
[7] = test system: COLO 205 colon
[8] = test system: OVCAR-5 ovarian
[9] = test system: 786-0 renal
[10] = test system: SR leukemia

SMILES	GI50 [1]	TGI [1]	GI50 [2]	TGI [2]	GI50 [3]	TGI [3]	GI50 [4]	TGI [4]	GI50 [5]	TGI [5]	GI50 [6]	TGI [6]	GI50 [7]	TGI [7]	GI50 [8]	TGI [8]	GI50 [9]	TGI [9]	GI50 [10]	TGI [10]
CNC(=O)c1ccc(Nc2ncc(C(F)(F)F)c(NCc3nccnc3N(C)S(C)(=O)=O)n2)cc1	2.02 µM and 1.59 µM and 1.39 µM	5.61 µM and 3.89 µM and 4.18 µM	2.1 µM and 2.06 µM and 2.02 µM	> 10 µM and 8.03 µM and 8.91 µM	1.65 µM and 1.7 µM and 3.09 µM	> 10 µM and 10.4 µM and 13.3 µM	0.637 µM and 1.39 µM and 0.575 µM	2.74 µM and 3.76 µM and 2.85 µM	1.52 µM and 1.41 µM	4.9 µM	1.97 µM and 2.52 µM and 2.76 µM	7.06 µM and 13.3 µM and 7.4 µM	1.32 µM and 1.37 µM and 1.39 µM	2.91 µM and 2.78 µM and 3.17 µM	2.18 µM and 1.98 µM and 1.93 µM	> 10 µM and 9.03 µM and 9.56 µM	2.17 µM and 1.98 µM and 2.01 µM	> 10 µM and 11.6 µM and 18.3 µM	1.91 µM and 1.33 µM and 2.39 µM	8.17 µM and 7.7 µM and 9.42 µM
OCCN1CCN(CCO)Cc2ccccc2OCCOc2ccccc2C1		> 100 µM		> 100 µM		> 100 µM		> 100 µM		> 100 µM		> 100 µM		> 100 µM		> 100 µM		> 100 µM		> 100 µM
COc1ccc(C(=O)/C=C/c2cc3ccccc3[nH]c2=O)cc1	> 38.4 µM	> 100 µM	13.7 µM	25.4 µM	20.9 µM	> 100 µM	19.7 µM	> 44 µM	15.3 µM	34.8 µM	13.5 µM	24.5 µM	18.5 µM	35.3 µM	21.9 µM	> 56.8 µM		> 37.4 µM	17.3 µM	> 100 µM
CC[C@H](C)c1occ2c(O)c(C(=O)O)c(=O)cc-2c1C		93.5 µM		32.8 µM		> 100 µM		33.5 µM		> 100 µM		30.7 µM		36.8 µM		36.7 µM		> 100 µM		53.5 µM
CCCCCCN(CCCCCC)C(=N)c1ccnc2ccccc12	3.07 µM	16.6 µM	2.17 µM	6.33 µM	2.15 µM	9.67 µM	4.57 µM	15.5 µM	4.68 µM	17.3 µM	2.55 µM	11 µM	1.45 µM	2.97 µM	9.64 µM	21.7 µM	2.82 µM	12.5 µM	1.74 µM	5.34 µM
Cc1cc(NC(=O)c2ccc(NS(=O)(=O)CCO)cc2N2CCC3(CC2)CC3)nc(N2CCC(F)(F)CC2)n1	16.7 µM	31 µM	7.05 µM	27.3 µM	17.7 µM	32.6 µM	0.26 µM	6.58 µM	1.15 µM	15.6 µM	12.9 µM	27.3 µM	11 µM	28.4 µM	11.4 µM	23.6 µM	14.9 µM	30.6 µM	1.68 µM	25.3 µM
Cc1cc(Cl)ccc1Nc1sc(C(=O)c2cc3cc(Cl)ccc3o2)c(N)c1C#N		19.2 µM		> 100 µM		> 73.1 µM		> 100 µM		20.8 µM		21.9 µM		> 100 µM		> 100 µM		28.6 µM		> 100 µM
[N-]=[N+]=NC1(N=[N+]=[N-])C(=O)NN=C(c2ccccc2)C1=O (stereo unspecified)		> 100 µM		92.9 µM		> 100 µM		> 100 µM		> 100 µM		> 100 µM		> 100 µM				> 100 µM		75.5 µM
C#C[C@@]1(O)[C@@H](CO)O[C@@H](n2cc(Cl)c3c(N)ncnc32)[C@@H]1O	0.274 µM	0.659 µM	0.0541 µM	0.253 µM	0.317 µM	1.24 µM	0.299 µM	0.813 µM	0.283 µM	0.714 µM	0.134 µM	0.455 µM	0.106 µM	0.379 µM	0.425 µM	> 84.2 µM	0.322 µM	1.33 µM	0.073 µM	> 100 µM
CCN(Cc1ccc(F)cc1)c1ccc(CO)c(Cl)c1	0.019 µM	0.0936 µM	7.76 µM	20.7 µM	0.0366 µM	0.181 µM	2.81 µM	21.2 µM	4.58 µM	39.6 µM	14.5 µM	40.1 µM	1.35 µM	3.77 µM	0.103 µM	0.525 µM	4.6 µM	23.3 µM	15.3 µM	51.5 µM
Nc1ccccc1NC(=O)c1ccc(CSc2nc(N3CCOCC3)c3cccn3n2)cc1	1.09 µM	5.34 µM	0.49 µM	3.22 µM	0.163 µM	1.61 µM	0.464 µM	2.51 µM	0.32 µM	15.6 µM	0.339 µM	2.09 µM	1.07 µM	2.96 µM	0.985 µM	> 100 µM	0.988 µM	5.48 µM	0.301 µM	> 100 µM
N=c1ccn2c(n1)OC1C(OP(=O)(O)O)C(CO)OC12 (stereo unspecified)		> 100 µM		> 100 µM		> 100 µM		> 100 µM		> 100 µM		> 100 µM		> 100 µM		> 100 µM		> 100 µM		> 51.1 µM
CCC1CCc2nc3sc(C(=O)Nc4ccccc4F)c(N)c3cc2C1 (stereo unspecified)	0.0575 µM	0.689 µM	7.66 µM	> 100 µM			1.18 µM	> 100 µM	2.16 µM	> 100 µM	24.8 µM	> 100 µM	7.4 µM	> 100 µM	22.8 µM	> 100 µM	41.7 µM	> 100 µM	0.284 µM	38.1 µM
CCOC(=O)[C@H](CSSc1ncnc2cc[nH]c12)NC(=O)[C@@H](C)c1ccc2cc(OC)ccc2c1	6.96 µM	> 50.9 µM	0.081 µM	18.1 µM	0.265 µM	> 59.6 µM	1.62 µM	> 100 µM	0.388 µM	> 100 µM	0.303 µM	> 31.5 µM	1.85 µM	> 100 µM	0.929 µM	> 100 µM	0.347 µM	> 100 µM	0.385 µM	> 100 µM
O=C1c2ccccc2C(=O)N1/N=C\c1ccc(Br)cc1	> 100 µM	> 100 µM		> 10 µM		> 10 µM		> 10 µM	> 100 µM	> 100 µM		> 100 µM		> 100 µM	> 100 µM	> 100 µM	> 100 µM	> 100 µM	> 100 µM	> 100 µM
